≈ marks a conversion by molar mass, not a printed value.
Assays:
H460 NSCLC cells [1] = test: Cell survival, CCK-8 metabolic assay, single agent; type: cell-based
Method: Cell survival was determined by CCK-8 viability assay and/or clonogenic survival assay in 96 well plates or 24 well plates, respectively and combination index (CI) analysis of drug-drug interactions determined by Chou-Talalay analysis as we have previously described. • 1) CCK-8 metabolic assay: Cells were plated (2500 cells/well) in 96-well plate and allowed to grow for at least 18 hours in at 37° C. in the presence of 5% CO2 before treatment with inhibitor for 48 hours. CCK-8 solution (Dojindo) was added to 10% of the total media volume and after 1-4 hours of incubation absorbance at 450 nm was determined using BioTek® Synergy™ H1 hybrid multi-mode microplate reader • 2) Clonogenic survival assay: Cells were plated in a 24 well (20,000 cells/well) plate, incubated for at least 18 hours and then treated with inhibitor. […] Images of the stained colonies were captured with a Fuji LAS-3000 CCD system then counted using OpenCFU software. Viability is determined as a percent of vehicle controls and plotted versus drug concentration. • 3) Assessment of synergy via combination index (CI): In the combination index studies, cells (H460 or SKGT4) were treated with RPA inhibitor and Pt/etoposide/bleomycin/taxol/DDR inhibitor alone as well as the combination of both—the inhibitor and the DNA damaging chemotherapeutic agent/DDR inhibitor. […]

[2] = tested on: sonicated salmon sperm DNA; test: Fluorescent intercalator displacement (FID) assay, SYBR-Green; type: binding; settings: 25 mM MOPS pH 6.5
In short: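 Displacement of SYBR-Green from sonicated salmon sperm DNA (8.29 ng/μL) in 25 mM MOPS pH 6.5 with compound at indicated concentrations; doxorubicin positive control. Fluorescence (Ex 485/Em 528 nm) read within 5 min of incubation.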

[3] = Aqueous solubility as a function of pH; type: physicochemical; settings: thermodynamic from solid
Method: (§1) Aqueous solubility was determined by suspending compound in un-buffered water with stirring. Insoluble material was removed by sedimentation or filtration and soluble compound quantified by absorbance spectroscopy and LC/MS. pH dependence was determined by suspending compound in 10 mM citrate buffer at pH 4.0 or 10 mM phosphate […] as described above in the description.
(§2) The morpholine ring is commonly introduced into solvent exposed regions as a privileged solubilizing group to improve solubility or pharmacokinetic properties including metabolic stability of a prospective drug scaffold which is exemplified by many FDA approved drugs. Modifications on Ring A had less of an effect than the morpholino modifications at the alkyl carboxylic acid side chain. To determine the effect of pH on solubility, we prepared solution at 1 mM in citrate buffer at pH 4, phosphate buffer at pH 7 and carbonate buffer at pH 9.5.

H460 NSCLC cells [4] = test: Combination index (Chou-Talalay), CCK-8 assay; type: cell-based
Method: (§3) Cell survival was determined by CCK-8 viability assay and/or clonogenic survival assay in 96 well plates or 24 well plates, respectively and combination index (CI) analysis of drug-drug interactions determined by Chou-Talalay analysis as we have previously described. • 1) CCK-8 metabolic assay: Cells were plated (2500 cells/well) in 96-well plate and allowed to grow for at least 18 hours in at 37° C. in the presence of 5% CO2 before treatment with inhibitor for 48 hours. CCK-8 solution (Dojindo) was added to 10% of the total media volume and after 1-4 hours of incubation absorbance at 450 nm was determined using BioTek® Synergy™ H1 hybrid multi-mode microplate reader • 2) Clonogenic survival assay: Cells were plated in a 24 well (20,000 cells/well) plate, incubated for at least 18 hours and then treated with inhibitor. After 48 hours of treatment, the cells are re-plated in 10 cm dishes (500 cells/dish) and incubated for 8-10 days to allow colony formation. Plates are washed with PBS, fixed with glutaraldehyde and stained with crystal violet. Images of the stained colonies were captured with a Fuji LAS-3000 CCD system then counted using OpenCFU software. Viability is determined as a percent of vehicle controls and plotted versus drug concentration. • 3) Assessment of synergy via combination index (CI): In the combination index studies, cells (H460 or SKGT4) were treated with RPA inhibitor and Pt/etoposide/bleomycin/taxol/DDR inhibitor alone as well as the combination of both—the inhibitor and the DNA damaging chemotherapeutic agent/DDR inhibitor. The range of treatment was dependent on the IC50 of each inhibitor/drug. If the IC50 was X, then the cells were treated at a range of 0.04× to 5× concentration in a CCK-8 metabolic assay. The kill curves from both the single agent treatments as well as the combination treatment were used in a Chou-Talalay based method to determine the combination index (CI) at different fractions of cells affected.^40 A CI>1.0 indicates antagonism between the two agents, while a CI<1.0 indicates synergy.
(§4) Inhibiting RPA can act synergistically with DNA damaging therapeutics including cisplatin and etoposide (FIG. 4C). In these studies, we used the Chou-Talalay method, which provides a combination index (CI) that quantifies synergistic activity for each drug combination. […] The synergistic activity of compounds described herein with DNA damaging agents may be explained by RPA's role in the DNA damage response and signaling.

SKGT-4 EAC cells = test: Combination index (Chou-Talalay), CCK-8 assay; type: cell-based
Method: as §3, §4

[5] = Aqueous solubility in unbuffered water; type: physicochemical; settings: 43, 44, 45, 46, 47 vs 9, 16, 26, 28, 29 respectively
Method: as §1, §2

H460 cells = test: Caspase 3/7 activation (CellEvent Caspase-3/7 Green); type: cell-based; settings: 24 hours treatment
Method: Apoptosis induction was determined by activation of Caspase 3 and 7 using the CellEvent™ Caspase-3/7 Green Detection Reagent (Invitrogen). H460 cells were plated at […] in black 96 well plates with clear bottoms (Costar) and incubated for 24 hours prior to treatments. Cells were treated with the indicated concentration of compound 43 or cisplatin for 24 hours. The vehicle (DMSO) concentration was held constant at 1% for compound 43 treatments. For caspase 3/7 detection, media was removed and replaced with PBS containing 5% FBS and 2 μM CellEvent™ Caspase-3/7 Green Detection Reagent. Cells were incubated at 37° C./5% CO2 for 1 hour and fluorescence intensity was measured in a BioTek Synergy H1 plate reader (excitation/emission 485/528). Images were captured with an Evos FL2 Auto microscope (Invitrogen) using a 10× objective.

DNA binding activity (displacement of SYBR-Green intercalator) [2]: No significant DNA binding activity
solubility ([3]; aqueous buffer at pH 9.5, pH 9.5, aqueous buffer): 3.62 ± 2.22 µM (≈ 2.6 µg/mL)
solubility ([3]; aqueous buffer, pH 4, citrate buffer): 21.4 ± 5.49 µM (≈ 15.4 µg/mL)
solubility ([3]; aqueous buffer, pH 7, phosphate buffer): 5.72 ± 2.79 µM (≈ 4.11 µg/mL)
aqueous solubility compared to carboxylic acid counterpart (in words) [5]: increased solubility
SMILES: CCOc1ccc2cc(C3CC(c4ccc(I)cc4)=NN3C(=O)CCCC(=O)NCCCN3CCOCC3)c(Cl)nc2c1 (centres unmarked) [Compound 43, 5-(5-(2-Chloro-7-ethoxyquinolin-3-yl)-3-(4-iodophenyl)-4,5-dihydro-1H-pyrazol-1-yl)-N-(3-morpholinopropyl)-5-oxopentanamide]
cellular anticancer activity compared to compound 9 (H460 NSCLC cells [1]): increase in cellular anticancer activity
synergy (combination index) with bleomycin (H460 NSCLC cells [4]): stronger synergy
synergy (combination index) with DNA damaging therapeutics cisplatin and etoposide (H460 NSCLC cells [4]; CI <1.0 = synergy): even greater synergy than either of its predecessors
synergy with PARP, DNA-PK, ATR and WEE1 inhibitors (SKGT-4 EAC cells; EAC cell model, BMN637, NU7441, VE821, MK1775): effectively synergizes
combination interaction with taxol (SKGT-4 EAC cells; SKGT-4 EAC cells, Chou-Talalay): additive interaction
caspase 3 and 7 activation (H460 cells): potently activates caspase 3 and 7

— patent US12486246B2, “Replication protein A (RPA)-DNA interaction inhibitors” (THE TRUSTEES OF INDIANA UNIVERSITY, priority 2019, dated 2025)
